# Test system: MV-4-11 cells
# Test: Gene expression microarray analysis (Affymetrix PrimeView) and GSEA
# Type: cell-based, human
# Parameters: RFU PODN (11730768_x_at) / Fold change /veh PODN (11730768_x_at) / RFU LINC00158 (11744669_a_at) / Fold change /veh LINC00158 (11744669_a_at) / RFU DUSP10 (11751237_a_at) / Fold change /veh DUSP10 (11751237_a_at) / RFU ID3 (11757404_x_at) / Fold change /veh ID3 (11757404_x_at) / RFU PLEKHG5 (11737974_s_at) / Fold change /veh PLEKHG5 (11737974_s_at) / RFU LRRC4B (11730491_at) / Fold change /veh LRRC4B (11730491_at) / RFU GIMAP4 (11747438_a_at) / Fold change /veh GIMAP4 (11747438_a_at) / RFU KRT8 (11758183_x_at) / Fold change /veh KRT8 (11758183_x_at) / RFU CNN1 (11734310_a_at) / Fold change /veh CNN1 (11734310_a_at) / RFU VPS37D (11726825_at) / Fold change /veh VPS37D (11726825_at) / RFU C10orf10 (11716522_x_at) / Fold change /veh C10orf10 (11716522_x_at) / RFU KIR2DL2 /// KIR2DL4 /// KIR2DL5A /// KIR2DL5B /// KIR2DS1 /// KIR2DS2 /// KIR2DS3 /// KIR2DS4 /// KIR3DL3 /// KIR3DL3 /// KIR3DS1 (11738374_at) / Fold change /veh KIR2DL2 /// KIR2DL4 /// KIR2DL5A /// KIR2DL5B /// KIR2DS1 /// KIR2DS2 /// KIR2DS3 /// KIR2DS4 /// KIR3DL3 /// KIR3DL3 /// KIR3DS1 (11738374_at) / RFU C1QL1 (11718748_at) / Fold change /veh C1QL1 (11718748_at) / RFU TMPRSS4 (11747572_a_at) / Fold change /veh TMPRSS4 (11747572_a_at) / RFU HAMP (11756126_x_at) / Fold change /veh HAMP (11756126_x_at) / RFU RNFT2 (11725882_a_at) / Fold change /veh RNFT2 (11725882_a_at) / RFU NR4A2 (11747474_a_at) / Fold change /veh NR4A2 (11747474_a_at) / RFU ABCC12 (11746883_a_at) / Fold change /veh ABCC12 (11746883_a_at) / RFU TMEM136 (11760407_x_at) / Fold change /veh TMEM136 (11760407_x_at) / RFU CLDN22 /// WWC2 (11732394_at) / Fold change /veh CLDN22 /// WWC2 (11732394_at) / RFU HLA-DPB1 (11760878_x_at) / Fold change /veh HLA-DPB1 (11760878_x_at) / RFU SPINT1 (11716480_a_at) / Fold change /veh SPINT1 (11716480_a_at) / RFU GAP43 (11754022_s_at) / Fold change /veh GAP43 (11754022_s_at) / RFU A4GNT (11735810_at) / Fold change /veh A4GNT (11735810_at) / RFU PRB3 (11715151_x_at) / Fold change /veh PRB3 (11715151_x_at) / RFU TUBB4B (11761932_at) / Fold change /veh TUBB4B (11761932_at) / RFU CAPN14 (11732068_a_at) / Fold change /veh CAPN14 (11732068_a_at) / RFU TMCC2 (11721928_a_at) / Fold change /veh TMCC2 (11721928_a_at) / RFU IRGQ (11745062_a_at) / Fold change /veh IRGQ (11745062_a_at) / RFU FAM174B (11720279_a_at) / Fold change /veh FAM174B (11720279_a_at) / RFU TMPRSS4 (11748680_a_at) / Fold change /veh TMPRSS4 (11748680_a_at) / RFU FAM212B (11763350_a_at) / Fold change /veh FAM212B (11763350_a_at) / RFU PLEKHG5 (11743358_a_at) / Fold change /veh PLEKHG5 (11743358_a_at) / RFU ZSCAN30 (11745921_a_at) / Fold change /veh ZSCAN30 (11745921_a_at) / RFU CMKLR1 (11741424_a_at) / Fold change /veh CMKLR1 (11741424_a_at) / RFU LOC101060620 /// MAPK8IP1 (11723275_at) / Fold change /veh LOC101060620 /// MAPK8IP1 (11723275_at) / RFU SPTSSB (11747773_x_at) / Fold change /veh SPTSSB (11747773_x_at) / RFU PRSS12 (11739890_at) / Fold change /veh PRSS12 (11739890_at) / RFU BIN1 (11741810_x_at) / Fold change /veh BIN1 (11741810_x_at) / RFU WNT11 (11732464_a_at) / Fold change /veh WNT11 (11732464_a_at) / RFU C10orf10 (11716521_a_at) / Fold change /veh C10orf10 (11716521_a_at) / RFU C5orf56 (11738089_at) / Fold change /veh C5orf56 (11738089_at) / RFU CYB561 (11721691_x_at) / Fold change /veh CYB561 (11721691_x_at) / RFU ANKRD19P (11752326_a_at) / Fold change /veh ANKRD19P (11752326_a_at) / RFU OR2T12 /// OR2T33 /// OR2T8 (11738714_s_at) / Fold change /veh OR2T12 /// OR2T33 /// OR2T8 (11738714_s_at) / RFU VCAN (11748164_a_at) / Fold change /veh VCAN (11748164_a_at) / RFU JSRP1 (11732532_at) / Fold change /veh JSRP1 (11732532_at) / RFU KRTAP10-11 (11738290_x_at) / Fold change /veh KRTAP10-11 (11738290_x_at) / RFU MYO3A (11730013_a_at) / Fold change /veh MYO3A (11730013_a_at) / RFU EBF3 (11725865_a_at) / Fold change /veh EBF3 (11725865_a_at) / RFU CAMK2N1 (11719241_x_at) / Fold change /veh CAMK2N1 (11719241_x_at) / RFU C5orf56 (11738088_a_at) / Fold change /veh C5orf56 (11738088_a_at) / RFU OLFML3 (11715873_a_at) / Fold change /veh OLFML3 (11715873_a_at) / RFU LOC100653217 /// NTM (11731650_a_at) / Fold change /veh LOC100653217 /// NTM (11731650_a_at) / RFU MAPK11 (11762145_a_at) / Fold change /veh MAPK11 (11762145_a_at) / RFU FIZ1 (11724087_x_at) / Fold change /veh FIZ1 (11724087_x_at) / RFU OASL (11726364_x_at) / Fold change /veh OASL (11726364_x_at) / RFU SOX15 (11748057_x_at) / Fold change /veh SOX15 (11748057_x_at) / RFU CD79A (11719716_a_at) / Fold change /veh CD79A (11719716_a_at) / RFU HIST1H1D (11736915_at) / Fold change /veh HIST1H1D (11736915_at) / RFU CASKIN2 (11723855_a_at) / Fold change /veh CASKIN2 (11723855_a_at) / RFU LOC730098 (11760151_x_at) / Fold change /veh LOC730098 (11760151_x_at) / RFU OR4N2 (11742367_at) / Fold change /veh OR4N2 (11742367_at) / RFU PRRT2 (11749266_a_at) / Fold change /veh PRRT2 (11749266_a_at) / RFU SNX32 (11753110_a_at) / Fold change /veh SNX32 (11753110_a_at) / RFU CDHR5 (11726645_a_at) / Fold change /veh CDHR5 (11726645_a_at) / RFU RCAN1 (11760418_a_at) / Fold change /veh RCAN1 (11760418_a_at) / RFU FAM167A (11723789_a_at) / Fold change /veh FAM167A (11723789_a_at) / RFU FAM26E (11764081_at) / Fold change /veh FAM26E (11764081_at) / RFU ISYNA1 (11749810_s_at) / Fold change /veh ISYNA1 (11749810_s_at) / RFU ACY1 (11761880_at) / Fold change /veh ACY1 (11761880_at) / RFU 11764098_at / Fold change /veh 11764098_at / RFU SAMD14 (11745864_x_at) / Fold change /veh SAMD14 (11745864_x_at) / RFU NPB (11741838_a_at) / Fold change /veh NPB (11741838_a_at) / RFU TMPRSS6 (11731388_a_at) / Fold change /veh TMPRSS6 (11731388_a_at) / RFU KRTAP10-2 (11738614_at) / Fold change /veh KRTAP10-2 (11738614_at) / RFU ARHGAP8 /// PRR5-ARHGAP8 (11727945_x_at) / Fold change /veh ARHGAP8 /// PRR5-ARHGAP8 (11727945_x_at) / RFU KRTAP5-7 /// NADSYN1 (11734609_at) / Fold change /veh KRTAP5-7 /// NADSYN1 (11734609_at) / RFU RASL12 (11751679_a_at) / Fold change /veh RASL12 (11751679_a_at) / RFU CDKN2B (11736163_a_at) / Fold change /veh CDKN2B (11736163_a_at) / RFU PRF1 (11729649_at) / Fold change /veh PRF1 (11729649_at) / RFU, ZNF638 /// ZNF638-IT1 / Fold change vs veh, ZNF638 /// ZNF638-IT1 / RFU, PANK3 / Fold change vs veh, PANK3 / RFU, SH3YL1 / Fold change vs veh, SH3YL1 / RFU, ZEB2 / Fold change vs veh, ZEB2 / RFU, NRIP1 / Fold change vs veh, NRIP1 / RFU, PTTG1IP / Fold change vs veh, PTTG1IP / RFU, CAPN2 / Fold change vs veh, CAPN2 / RFU, MED14 / Fold change vs veh, MED14 / RFU, SNORA58 / Fold change vs veh, SNORA58 / RFU, C1orf63 / Fold change vs veh, C1orf63 / RFU, LRRFIP1 / Fold change vs veh, LRRFIP1 / RFU, NDUFAF7 / Fold change vs veh, NDUFAF7 / RFU, SLC12A2 / Fold change vs veh, SLC12A2 / RFU, IBTK / Fold change vs veh, IBTK / RFU, ESF1 / Fold change vs veh, ESF1 / Fold change vs veh, TMEM50B / RFU, TAOK1 / Fold change vs veh, TAOK1 / RFU, ACBD3 / Fold change vs veh, ACBD3 / RFU, TMA16 / Fold change vs veh, TMA16 / RFU, RWDD3 / Fold change vs veh, RWDD3 / RFU, BCAT1 / Fold change vs veh, BCAT1 / RFU, EDEM3 / Fold change vs veh, EDEM3 / RFU, TMEM33 / Fold change vs veh, TMEM33 / RFU, WDR75 / Fold change vs veh, WDR75 / RFU, AHCTF1 / Fold change vs veh, AHCTF1 / RFU, TFRC / Fold change vs veh, TFRC / RFU, ZDHHC17 / Fold change vs veh, ZDHHC17 / RFU, NOM1 / Fold change vs veh, NOM1 / RFU, ARL8B / Fold change vs veh, ARL8B / RFU, ZBTB11 / Fold change vs veh, ZBTB11 / RFU, TAMM41 / Fold change vs veh, TAMM41 / RFU, KIAA1704 /// LOC100996395 / Fold change vs veh, KIAA1704 /// LOC100996395 / RFU, ING1 / Fold change vs veh, ING1 / RFU, TRMT61B / Fold change vs veh, TRMT61B / RFU, FUBP3 / Fold change vs veh, FUBP3 / RFU, TP53 / Fold change vs veh, TP53 / RFU, TNKS2 / Fold change vs veh, TNKS2 / RFU, ZFP14 / Fold change vs veh, ZFP14 / RFU, ACTR2 / Fold change vs veh, ACTR2 / RFU, PPP3R1 / Fold change vs veh, PPP3R1 / RFU, PIK3R1 / Fold change vs veh, PIK3R1 / RFU, HNRNPA1 / Fold change vs veh, HNRNPA1 / RFU, RNF170 / Fold change vs veh, RNF170 / RFU, ZNF28 / Fold change vs veh, ZNF28 / RFU, RNGTT / Fold change vs veh, RNGTT / RFU, OGT / Fold change vs veh, OGT / RFU, BRD1 / Fold change vs veh, BRD1 / RFU, MARS / Fold change vs veh, MARS / RFU, ZNF655 / Fold change vs veh, ZNF655 / RFU, FAHD1 / Fold change vs veh, FAHD1 / RFU, BDP1 / Fold change vs veh, BDP1 / RFU, LRRCC1 / Fold change vs veh, LRRCC1 / RFU, ARID1A / Fold change vs veh, ARID1A / RFU, ZNF146 / Fold change vs veh, ZNF146 / RFU, ZNF330 / Fold change vs veh, ZNF330 / RFU, GPN3 / Fold change vs veh, GPN3 / RFU, C9orf123 / Fold change vs veh, C9orf123 / RFU, N4BP2L2 / Fold change vs veh, N4BP2L2 / RFU, ARFIP1 / Fold change vs veh, ARFIP1 / RFU, FAM179B / Fold change vs veh, FAM179B / RFU, BCL10 / Fold change vs veh, BCL10 / RFU, UHRF1BP1L / Fold change vs veh, UHRF1BP1L / RFU, BET1 / Fold change vs veh, BET1 / RFU, CNOT2 / Fold change vs veh, CNOT2 / RFU, ZNF268 / Fold change vs veh, ZNF268 / Fold change vs veh, ZNF507 / RFU, DGCR2 / Fold change vs veh, DGCR2 / RFU, WDSUB1 / Fold change vs veh, WDSUB1 / Fold change vs veh, HSP90B1 /// MIR3652 / RFU, ADSS / Fold change vs veh, ADSS / RFU, GK / Fold change vs veh, GK / RFU, ZNF148 / Fold change vs veh, ZNF148 / RFU, TAF9 / Fold change vs veh, TAF9 / RFU, SLC1A5 / Fold change vs veh, SLC1A5 / RFU, SLMO2 / Fold change vs veh, SLMO2 / RFU, ABCC4 / Fold change vs veh, ABCC4 / RFU, LOC101060439 /// RAP1B / Fold change vs veh, LOC101060439 /// RAP1B / RFU, RFX7 / Fold change vs veh, RFX7 / RFU, GTPBP10 / Fold change vs veh, GTPBP10 / RFU, CNEP1R1 / Fold change vs veh, CNEP1R1 / RFU, BIVM-ERCC5 /// ERCC5 / Fold change vs veh, BIVM-ERCC5 /// ERCC5 / RFU, ILF3 / Fold change vs veh, ILF3 / RFU 11762660_at / Fold change /veh 11762660_at / RFU VCAN (11757783_s_at) / Fold change /veh VCAN (11757783_s_at) / RFU DDX43 (11728927_at) / Fold change /veh DDX43 (11728927_at) / RFU KRT8 (11758188_x_at) / Fold change /veh KRT8 (11758188_x_at) / RFU NKD1 (11759106_at) / Fold change /veh NKD1 (11759106_at) / RFU SRD5A1 (11742802_a_at) / Fold change /veh SRD5A1 (11742802_a_at) / RFU TPSAB1 /// TPSB2 (11721975_s_at) / Fold change /veh TPSAB1 /// TPSB2 (11721975_s_at) / RFU GSTM3 (11746129_a_at) / Fold change /veh GSTM3 (11746129_a_at) / RFU IL23R (11737362_x_at) / Fold change /veh IL23R (11737362_x_at) / RFU TMEM51 (11727254_a_at) / Fold change /veh TMEM51 (11727254_a_at) / RFU PIWIL2 (11732686_x_at) / Fold change /veh PIWIL2 (11732686_x_at) / RFU ORM1 (11744905_x_at) / Fold change /veh ORM1 (11744905_x_at) / RFU CCDC152 (11743942_at) / Fold change /veh CCDC152 (11743942_at) / RFU ECM1 (11717891_a_at) / Fold change /veh ECM1 (11717891_a_at) / RFU IL23R (11748794_a_at) / Fold change /veh IL23R (11748794_a_at) / RFU TNFAIP8L3 (11732012_x_at) / Fold change /veh TNFAIP8L3 (11732012_x_at) / RFU MBOAT4 (11741988_at) / Fold change /veh MBOAT4 (11741988_at) / RFU 11764193_at / Fold change /veh 11764193_at / RFU TMEM53 (11763286_at) / Fold change /veh TMEM53 (11763286_at) / RFU MAGEB2 (11727129_at) / Fold change /veh MAGEB2 (11727129_at) / RFU TMEM200A (11744735_a_at) / Fold change /veh TMEM200A (11744735_a_at) / RFU CCDC152 (11751479_a_at) / Fold change /veh CCDC152 (11751479_a_at) / RFU FAM211A (11726209_a_at) / Fold change /veh FAM211A (11726209_a_at) / RFU RGS16 (11746705_a_at) / Fold change /veh RGS16 (11746705_a_at) / RFU VCAN (11755009_s_at) / Fold change /veh VCAN (11755009_s_at) / RFU RHOB (11743442_s_at) / Fold change /veh RHOB (11743442_s_at) / RFU RGS16 (11720943_a_at) / Fold change /veh RGS16 (11720943_a_at) / RFU RGS16 (11720944_at) / Fold change /veh RGS16 (11720944_at) / RFU, VPS4B / Fold change vs veh, VPS4B / RFU, CREB1 / Fold change vs veh, CREB1 / RFU, DNAJC13 / Fold change vs veh, DNAJC13 / RFU, GNAQ / Fold change vs veh, GNAQ / RFU, CDK5R1 / Fold change vs veh, CDK5R1 / RFU, ZRANB3 / Fold change vs veh, ZRANB3 / RFU, CUL4A / Fold change vs veh, CUL4A / RFU, CCNY / Fold change vs veh, CCNY / RFU, UFL1 / Fold change vs veh, UFL1 / RFU, COG3 / Fold change vs veh, COG3 / RFU, DIAPH2 / Fold change vs veh, DIAPH2 / RFU, SKA2 / Fold change vs veh, SKA2 / RFU, AFF3 / Fold change vs veh, AFF3 / RFU, LMF1 / Fold change vs veh, LMF1 / RFU, IPO11 / Fold change vs veh, IPO11 / RFU, DFFB / Fold change vs veh, DFFB / RFU, FOXP1 / Fold change vs veh, FOXP1 / RFU, CARD8 / Fold change vs veh, CARD8 / RFU, STRN3 / Fold change vs veh, STRN3 / RFU, ADK / Fold change vs veh, ADK / RFU, RASSF2 / Fold change vs veh, RASSF2 / RFU, WIPF1 / Fold change vs veh, WIPF1 / RFU, LARP1B / Fold change vs veh, LARP1B / RFU, RASA1 / Fold change vs veh, RASA1 / RFU, RB1 / Fold change vs veh, RB1 / RFU, PPFIA1 / Fold change vs veh, PPFIA1 / RFU, MAT2A / Fold change vs veh, MAT2A / RFU, CCT5 / Fold change vs veh, CCT5 / RFU, WDR92 / Fold change vs veh, WDR92 / RFU, CUX1 / Fold change vs veh, CUX1 / RFU, TTC7A / Fold change vs veh, TTC7A / RFU, TMEM135 / Fold change vs veh, TMEM135 / RFU, DEPTOR / Fold change vs veh, DEPTOR / RFU, CPM / Fold change vs veh, CPM / RFU, DNAJB6 / Fold change vs veh, DNAJB6 / RFU, CACNA2D3 / Fold change vs veh, CACNA2D3 / RFU, DTX4 / Fold change vs veh, DTX4 / RFU, TFCP2 / Fold change vs veh, TFCP2 / RFU, GMCL1 /// GMCL1P1 / Fold change vs veh, GMCL1 /// GMCL1P1 / RFU, AEBP2 / Fold change vs veh, AEBP2 / RFU, SNHG1 /// SNORD22 /// SNORD25 /// SNORD26 /// SNORD27 /// SNORD28 /// SNORD29 /// SNORD31 / Fold change vs veh, SNHG1 /// SNORD22 /// SNORD25 /// SNORD26 /// SNORD27 /// SNORD28 /// SNORD29 /// SNORD31 / Fold change (Aza/veh), C12orf56 (ProbeSet 11735607_a_at) / Fold change (ACY-1035/veh), C12orf56 (ProbeSet 11735607_a_at) / Fold change (Aza/veh), FGFR1OP (ProbeSet 11751329_s_at) / Fold change (ACY-1035/veh), FGFR1OP (ProbeSet 11751329_s_at) / Fold change (Aza/veh), VPS36 (ProbeSet 11739960_a_at) / Fold change (ACY-1035/veh), VPS36 (ProbeSet 11739960_a_at) / RFU SYPL1 (11715823_x_at) / Fold change /veh SYPL1 (11715823_x_at) / RFU IGFBP7 (11715501_s_at) / Fold change /veh IGFBP7 (11715501_s_at) / RFU REEP3 (11722064_at) / Fold change /veh REEP3 (11722064_at) / RFU IGLL1 (11728026_x_at) / Fold change /veh IGLL1 (11728026_x_at): dose or concentration left out as unconfirmed
# Conditions: MV-4-11 cells, 48 hours
compound,measurement,value
Nc1ccc(-c2cccs2)cc1NC(=O)c1ccc2c(c1)cc(C1CC1)n2CCN1CCOCC1 [ACY-1035],Fold change /veh C10orf10 (11716522_x_at),1.10

# Reference: publication PMC5218480 (PLoS ONE, 2017)
